Assays:
[1] = target: proteasome (Homo sapiens, UniProt P28072+P28074+Q99436); test: Efficacy against the proteasome relative to the parent inhibitor; format: biochemical
Source text: (§1) We next tested the potency and selectivity of iBEp relative to Epoxomicin. Epoxomicin covalently and irreversibly binds the catalytic β subunits of the proteasome-therefore, the biotin moiety on iBEp serves as a tracer to detect whether proteasomes are inhibited by monitoring biotin signal on an SDS-PAGE gel (83, 87-89). […] This is supported by previous data that modification of the non-reactive end of epoxomicin has been shown not to change the selectivity of Epoxomicin for the proteasome (83, 87-89). […] We therefore chose doses of inhibitor where the effective concentration of the inhibitor was similar to previous studies using Epoxomicin alone and well within the acceptable range of efficacy given how potent Epoxomicin is as a proteasome inhibitor.
Many of our experiments rely on the use of iBEp because the biotin tracer on an irreversible and specific inhibitor allows us to track which proteasomes are inhibited. However, we wanted to validate our findings using a proteasome inhibitor with a distinct mechanism of action from Epoxomicin. We therefore modified MG132, a reversible peptide aldehyde proteasome inhibitor, with a sulfonated biotin linker on the nonreactive N-terminus (84). […] Instead, we turned to cellular and functional readouts of permeability. […]

[2] = tested on: Tau; test: iBEp dose range in hTau/ApoE double KI primary neurons, sarkosyl-insoluble Tau; format: cell-based, mouse
[3] = tested on: endogenous mouse Tau; test: Sarkosyl fractionation and Tau immunoblot, WT primary cortical neurons; format: cell-based; details: 1 μM, 12 hours, vs DMSO
Source text: (§2) (FIG. 5A) Effect of neuroproteasome-specific inhibitor iBEp on Tau aggregation in primary neurons. […] Quantification of soluble and insoluble murine Tau (mTau) intensities normalized to soluble GAPDH. […] (FIG. 5B) Effect of neuroproteasome inhibition on aggregation of human Tau (hTau). […] (FIG. 5C) Generation of reversible neuroproteasome inhibitors to test effects of neuroproteasome inhibition. (Top) Structure of Sulfo-MG132 (SulfoMG). […] (FIG. 5D) Effect of reversible neuroproteasome inhibition using SulfoMG on Tau aggregation. […] Quantification of soluble and insoluble Tau intensities were normalized to soluble GAPDH. Data (right) are mean±SEM normalized respective to DMSO controls. […] (FIG. 5E) Testing iBEp permeability in vivo. […] 72 hours post injection, hippocampi were isolated and subjected to membrane fractionation without detergent. […] (FIG. 5F) Effect of neuroproteasome inhibition on Tau aggregation in vivo.

[4] = tested on: human Tau; test: Sarkosyl fractionation and Tau immunoblot, hTau-KI primary cortical neurons; format: cell-based; details: 1 μM, 12 hours, vs DMSO
Source text: as §2

[5] = target: T1, proteasome (Mus musculus, UniProt O55234+P70195+Q60692); test: Covalent biotinylation of proteins in iBEp-treated neurons (SDS-PAGE biotin signal); format: cell-based
T1 construct: endogenous in cells
Source text: as §1

[6] = tested on: phosphorylated Tau; test: Immunohistochemistry for phosphorylated Tau (AT8) in hTau-KI mice after stereotactic injection; details: stereotactic injection, 72 hours, vs contralateral control
Procedure: Scale bars=15 μm (FIG. 6C) Immunohistochemical analysis of mice stereotactically injected with iBEp to measure Tau phosphorylation in vivo. […] Mice were collected 72 hours post injection and sections were stained using indicated antibodies: NeuN (blue) and AT8 (pTau, green). 4×, 20× and 60× representative images are shown. Quantification of pTau signal intensity was normalized to NeuN intensity. Analysis was done blinded to experimental condition. Data are mean±SEM normalized either to DMSO or iBEP+CHX. n=2 sections/animal, ** p<0.01 by Paired T-test/experiment. Scale bars=500 μm (left), scale bar=25 μm (right). (FIG. 6D) Immunohistochemical analysis of mice stereotactically injected with iBEp to measure Thioflavin-S positive Tau aggregates in vivo. Four-to-five month old hTau-KI mice were treated identically to (FIG. 6C), but stained for Thioflavin S (magenta) to visualize β-sheet containing aggregates and immunostained with NeuN (blue). N=7 (3M, 4F). Left, Vehicle-treated hippocampus, Right, iBEp-treated hippocampus (red). […] Data are quantification of number of flame-like Thioflavin-S positive inclusions. Counting and analysis was blinded to experimental condition. *** p<0.001 by one-way ANOVA. Scale bars=100 μm. (FIG. 6E) Higher magnification image of flame-like Thioflavin S-positive inclusions (magenta), NeuN (blue). Top, ThioS alone, Bottom, merge with NeuN. Scale bar=20 μm. […]

[7] = dose range 1000-1.6 nM, hTau/ApoE double KI neurons

## CC[C@H](C)[C@H](NC(=O)CCOCCOCCOCCOCCOCCOCCOCCOCCOCCOCCOCCOCCOCCOCCOCCOCCOCCOCCOCCOCCOCCOCCOCCOCCn1cc(COCCOCCOCCOCCNC(=O)CCCC[C@@H]2SC[C@@H]3NC(=O)N[C@@H]32)nn1)C(=O)N[C@H](C(=O)N[C@H](C(=O)N[C@@H](CC(C)C)C(=O)[C@@]1(C)CO1)[C@@H](C)O)[C@@H](C)CC [iBEp, Biotin-PEG24-Epoxomicin]
[1]
  efficacy against the proteasome relative to the parent inhibitor: moderately reduces the efficacy of iBEp relative to Epoxomicin
[2]; dose range 1000, 200, 40, 8 and 1.6 nM
  sarkosyl-insoluble Tau in hTau/E4-dKI neurons at the lowest dose: accumulation of sarkosyl-insoluble Tau in hTau/E4-dKI neurons
[2]; [7]
  susceptibility to Tau aggregation, E4 neurons vs E3 neurons (more susceptible): over 25 fold
  susceptibility to Tau aggregation, hTau/E2-dKI vs hTau/E3-dKI neurons (less susceptible): over 10 fold
[3]
  sarkosyl-insoluble Tau, WT neurons: significant increase in sarkosyl-insoluble Tau
[4]
  sarkosyl-insoluble Tau, hTau-KI neurons: significant increase in sarkosyl-insoluble Tau
[5]
  proteins covalently biotinylated in treated neurons (specificity): covalent biotinylation of only three proteins
[6]
  phosphorylated Tau (AT8) signal in injected hippocampi: threefold induction of phosphorylated Tau signal
